In US12076364B2, “Use of interference peptide in preparation of anti-SARS-CoV-2 medicament” (KUNMING INSTITUTE OF ZOOLOGY, CHINESE ACADEMY OF SCIENCES, priority 2020, dated 2024):
Where a SMILES comes first, the peptide text is derived from it. Where no end group is shown, it is not given here.

System: SARS-CoV-2
Details: 48 h; for inhibition of viral infection: 80 μM peptide, Vero E6 cells

| Compound | inhibition of viral infection | EC50 |
| --- | --- | --- |
| DQTKFPIVNAEL-OH [DL12] | 99% | 5 µM |
| HPVTGQF [HF7, HPVTGQF] | 89% | 11.4 µM |
| SDWKTD [SD6, SDWKTD] | 98% | 6.4 µM |
| C[C@H](NC(=O)[C@@H](N)CCCNC(=N)N)C(=O)NCC(=O)N[C@@H](CCCCN)C(=O)O [RK4, RAGK] (H-RAGK-OH; N-terminus assumed) | 99% | 10 µM |
